Experimental data as given in PMC9226319, “Peripherally restricted transthyretin-based delivery system for probes and therapeutics avoiding opioid-related side effects” (Nature Communications, 2022).
Values joined by “and” are separate entries in the source; they are usually repeats but may differ in a detail not shown here. Equal entries are not always repeated. Where two headings read alike, the source gives them in different places.

Tests used:
[1] = rat; for plasma concentration: SC 16 µmol/kg, individual animals
[2] = in vivo; settings: male, Sprague Dawley, rat, sc
[3] = Serum stability assay of AG10-L2-Nal, mouse serum; type: in vitro ADME; settings: 100 µM
Procedure: (§1) AG10-L2-Nal (100 μM) was incubated in sera, and the concentration remaining in respective media was determined at 0 and 48 h using HPLC. Bar graphs represent the mean of % compound remaining ± s.d. […] The plasma, brain tissue, and CSF were collected at 30 min after dosing. The ratio of the brain (ng/g) versus plasma concentration (ng/mL) is expressed as the percentage brain to plasma ratio. The ratio of the CSF (ng/mL) versus plasma concentration (ng/mL) is expressed as the percentage CSF to plasma ratio. Bar graphs show the respective mean (±s.d.) (n = 3 for each group). […] The concentration of the test compounds in plasma was determined at different time points and expressed as means ± s.d. of three biological replicates. Source data are provided as a Source Data file. […]
(§2) (Taiwan). The experimental procedure was performed as reported12. […]
(§3) Serum stability assay of AG10-L2-Nal. […] 100 μL samples were analyzed at 0 h, 24 h, and 48 h time intervals. […] The supernatant was analyzed using Waters™ XBridge C18 column (4.6x250 mm, 5μm) on Waters e2695 separations module HPLC system connected to a Waters 2998 photodiode array detector operating between the UV ranges of 200-400 nm. […]

[4] = in vivo; settings: male, Sprague Dawley, rat, iv, percentage CSF to plasma ratio
[5] = rat; for plasma concentration: individual animals
[6] = target: T1, kappa opioid receptor (rat) (Rattus norvegicus, UniProt P34975); experiment: Rat kappa-opioid receptor (agonist radioligand [3H] U 69593) binding assay; settings: for % Inhibition of Control Specific Binding: kappa-opioid receptor binding, replicates 1st/2nd
T1 construct: Eurofins Cerep (France)
T1 sequence (P34975 whole entry): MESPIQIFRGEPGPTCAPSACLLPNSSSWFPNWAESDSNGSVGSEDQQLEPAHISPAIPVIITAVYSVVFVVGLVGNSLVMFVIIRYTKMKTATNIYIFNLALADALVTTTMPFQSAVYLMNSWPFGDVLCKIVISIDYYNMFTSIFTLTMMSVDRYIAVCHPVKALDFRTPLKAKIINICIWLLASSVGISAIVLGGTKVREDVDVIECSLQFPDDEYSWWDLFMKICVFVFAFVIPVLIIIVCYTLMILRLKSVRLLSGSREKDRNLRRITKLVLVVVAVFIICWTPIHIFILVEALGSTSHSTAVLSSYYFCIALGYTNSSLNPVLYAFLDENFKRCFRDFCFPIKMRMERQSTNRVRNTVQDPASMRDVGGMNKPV

[7] = Serum stability assay of AG10-L2-Nal, rat serum; type: in vitro ADME; settings: 100 µM
Procedure: as §1, §2, §3

[8] = target: T2, delta-opioid receptor (human) (Homo sapiens, UniProt P41143); experiment: Human delta-opioid receptor (agonist radioligand [3H]-DADLE) binding assay; settings: for % Inhibition of Control Specific Binding: delta-opioid receptor binding, replicates 1st/2nd
T2 construct: Eurofins Cerep (France)
T2 sequence (P41143 whole entry): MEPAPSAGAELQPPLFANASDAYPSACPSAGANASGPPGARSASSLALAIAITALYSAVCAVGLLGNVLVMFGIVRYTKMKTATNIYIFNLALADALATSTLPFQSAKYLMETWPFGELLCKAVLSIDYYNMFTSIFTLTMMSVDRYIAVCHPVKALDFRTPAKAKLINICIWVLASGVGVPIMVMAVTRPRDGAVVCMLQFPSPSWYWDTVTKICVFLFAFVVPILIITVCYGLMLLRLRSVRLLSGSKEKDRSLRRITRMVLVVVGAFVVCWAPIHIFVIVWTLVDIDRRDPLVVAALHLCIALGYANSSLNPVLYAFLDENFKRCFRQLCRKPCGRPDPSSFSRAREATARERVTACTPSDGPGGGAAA

## C=CCN1CC[C@]23c4c5ccc(O)c4O[C@H]2[C@@H](OCc2cn(CCNCCCCCCOc4cc(OCCCc6c(C)n[nH]c6C)cc(C(=O)O)c4)nn2)CC[C@@]3(O)[C@H]1C5 [AG10-L2-Nal]
[1]; 0.03 h
  plasma concentration: 1290 nM and 1240 nM and 552 nM
[1]; 0.25 h
  plasma concentration: 5340 nM and 6840 nM
[1]; 0.5 h
  plasma concentration: 3960 nM and 4020 nM
[1]; 0.75 h
  plasma concentration: 3620 nM and 2900 nM
[1]; 1 h
  plasma concentration: 3480 nM and 3260 nM
[1]; 2 h
  plasma concentration: 1350 nM and 1760 nM
[1]; 4 h
  plasma concentration: 1120 nM and 1540 nM
[1]; 6 h
  plasma concentration: 623 nM and 938 nM
[1]; 8 h
  plasma concentration: 699 nM and 1120 nM
[1]; 12 h
  plasma concentration: 166 nM and 200 nM and 516 nM
[1]; 24 h
  plasma concentration: 49.7 nM and 31.1 nM
[1]; single SC dose 16 µmol/kg
  k: 0.20 ± 0.04 h⁻¹
[2]; 16 umol/kg
  AUC(0-inf): 17.6 ± 2.54 µM·h
  CL/F: 15.3 mL/min/kg
  Vd/F: 4.89 ± 1.83 L/kg
  half-life: 3.62 ± 0.76 h
[2]; 16 µmol/kg, plasma concentration, SC 16 µmol/kg, 0.25 h, individual animals
  concentration at 0.25 h: 7560 nM
[2]; 16 µmol/kg, plasma concentration, SC 16 µmol/kg, 0.5 h, individual animals
  concentration at 0.5 h: 4680 nM
[2]; 16 µmol/kg, plasma concentration, SC 16 µmol/kg, 0.75 h, individual animals
  concentration at 0.75 h: 4580 nM
[2]; 16 µmol/kg, plasma concentration, SC 16 µmol/kg, 1 h, individual animals
  concentration at 1 h: 4240 nM
[2]; 16 µmol/kg, plasma concentration, SC 16 µmol/kg, 2 h, individual animals
  concentration at 2 h: 2370 nM
[2]; 16 µmol/kg, plasma concentration, SC 16 µmol/kg, 4 h, individual animals
  concentration at 4 h: 1470 nM
[2]; 16 µmol/kg, plasma concentration, SC 16 µmol/kg, 6 h, individual animals
  concentration at 6 h: 1050 nM
[2]; 16 µmol/kg, plasma concentration, SC 16 µmol/kg, 8 h, individual animals
  concentration at 8 h: 727 nM
[2]; 16 µmol/kg, plasma concentration, SC 16 µmol/kg, 24 h, individual animals
  concentration at 24 h: 40.6 nM
[3]; 0 h, replicates
  % compound remaining in mouse serum: 98.29% and 100.51% and 101.20%
[3]; 37 °C, 48 h, table replicates
  % compound remaining in mouse serum: 100% and 99.98% and 100.20% and 102.73%
[4]
  Kp: 0.01
[5]; IV 4.84 µmol/kg
  fold higher AUCinf than naloxegol: ~23 fold
  fold higher AUCinf than naloxone: ~12 fold
  fold increase in half-life compared to naloxegol: 3.5 fold
  fold increase in half-life compared to naloxone: 7 fold
[5]; IV 4.84 µmol/kg, 0.03 h
  plasma concentration: 57263.9 nM and 57506.1 nM
[5]; IV 4.84 µmol/kg, 0.5 h
  plasma concentration: 2941.9 nM and 1319.6 nM and 2239.7 nM
[5]; IV 4.84 µmol/kg, 1 h
  plasma concentration: 296.6 nM and 441.9 nM
[5]; IV 4.84 µmol/kg, 2 h
  plasma concentration: 155 nM and 181.6 nM
[5]; IV 4.84 µmol/kg, 4 h
  plasma concentration: 92.9 nM and 28.6 nM and 125.9 nM
[5]; IV 4.84 µmol/kg, 6 h
  plasma concentration: 75.2 nM and 37 nM and 51.6 nM
[5]; IV 4.84 µmol/kg, 8 h
  plasma concentration: 23 nM and 56.2 nM and 25.7 nM
[5]; IV 4.84 µmol/kg, 12 h
  plasma concentration: 14.4 nM and 12 nM
[5]; IV 4.84 µmol/kg, 24 h
  plasma concentration: 3.4 nM and 7.2 nM and 2.7 nM
[5]; single IV bolus 4.84 µmol/kg
  k: 0.12 ± 0.02 h⁻¹
[6]; [3H] U 69593 displacement, read-out: binding affinity to kappa-opioid receptor (Ki)
  Ki: 0.12 nM
[6]; 1.0E-07 M
  % Inhibition of Control Specific Binding: 98.2% and 98.6%
[6]; 1.0E-08 M
  % Inhibition of Control Specific Binding: 96.0%
[6]; 1.0E-09 M
  % Inhibition of Control Specific Binding: 83.2% and 82.8%
[6]; 1.0E-10 M
  % Inhibition of Control Specific Binding: 41.5% and 28.1%
[6]; 5.0E-08 M
  % Inhibition of Control Specific Binding: 98.3% and 97.6%
[7]; 0 h, replicates
  % compound remaining in rat serum: 101.22% and 98.78% and 100.03%
[7]; 37 °C, 48 h, table replicates
  % compound remaining in rat serum: 100% and 99.06% and 98.97% and 99.95%
[8]; [3H]-DADLE displacement, read-out: binding affinity to delta-opioid receptor (Ki)
  Ki: 5.5 nM
[8]; 1.0E-07 M
  % Inhibition of Control Specific Binding: 91.6% and 94.2%
[8]; 1.0E-08 M
  % Inhibition of Control Specific Binding: 53.9% and 52.4%
[8]; 1.0E-09 M
  % Inhibition of Control Specific Binding: 14.6% and 12.2%
[8]; 1.0E-10 M
  % Inhibition of Control Specific Binding: 2.7% and 9.1%
[8]; 5.0E-08 M
  % Inhibition of Control Specific Binding: 83.7% and 87.4%
